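The compound was tested at five concentrations on cells cultured in 96-well plates, with a 48-hour exposure period. TGI: total growth inhibition.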
Key:
Assay in all cases: DTP human tumour cell line panel, 48 h
SN12C renal = tested on: SN12C renal
SK-OV-3 ovarian = tested on: SK-OV-3 ovarian
HOP-62 NSCLC = tested on: HOP-62 NSCLC
PC-3 prostate = tested on: PC-3 prostate
SK-MEL-28 melanoma = tested on: SK-MEL-28 melanoma
DU-145 prostate = tested on: DU-145 prostate
RPMI-8226 leukemia = tested on: RPMI-8226 leukemia
TK-10 renal = tested on: TK-10 renal
OVCAR-3 ovarian = tested on: OVCAR-3 ovarian
RXF 393 renal = tested on: RXF 393 renal
MCF7 breast = tested on: MCF7 breast
MDA-N = tested on: MDA-N
NCI-H460 lung = tested on: NCI-H460 lung
T-47D breast = tested on: T-47D breast
A498 renal = tested on: A498 renal
SK-MEL-2 melanoma = tested on: SK-MEL-2 melanoma
SW-620 colon = tested on: SW-620 colon
UACC-257 melanoma = tested on: UACC-257 melanoma
NCI-H522 lung = tested on: NCI-H522 lung

Compound	TGI (SN12C renal) [µM]	TGI (SK-OV-3 ovarian) [µM]	TGI (HOP-62 NSCLC) [µM]	TGI (PC-3 prostate) [µM]	TGI (SK-MEL-28 melanoma) [µM]	TGI (DU-145 prostate) [µM]	TGI (RPMI-8226 leukemia) [µM]	TGI (TK-10 renal) [µM]	TGI (OVCAR-3 ovarian) [µM]	TGI (RXF 393 renal) [µM]	TGI (MCF7 breast) [µM]	TGI (MDA-N) [µM]	TGI (NCI-H460 lung) [µM]	TGI (T-47D breast) [µM]	TGI (A498 renal) [µM]	TGI (SK-MEL-2 melanoma) [µM]	TGI (SW-620 colon) [µM]	TGI (UACC-257 melanoma) [µM]	TGI (NCI-H522 lung) [µM]
COc1ccc(N2C(=O)/C(=C/c3ccc(N(CCC#N)CCC#N)cc3)N=C2c2ccccc2)cc1	> 100	> 100	> 100	> 100	> 100	> 100	> 100	> 100	> 100	> 100	> 100	> 100	> 100	> 100	> 100	> 100	> 100	> 100	
N#CC1=C(N)N(/N=C/c2ccco2)C(c2ccco2)C1(C#N)C#N (stereo not given)	70	83.8	51.1	48.5		32.1	44	32.4	39	25.8	43.2	37.4		33.2	29.9	47.4	24.5	33.2	31.1
O=C1Nc2ccc(Br)cc2/C1=N/N1C(=O)C(=O)N(C2CCCCC2)C1=S	16	21.9	14.3	25.9	19	23.1	19.9	35	10.5	21.8	15.6	7.56	15.7	9.95	13.9	4.34	14.8	34.7	
O=c1c2c3c(sc2nc2n1NC=NN2)CCCC3	39.6	> 65.5		> 56.7	36.1	> 90.4	50.6	> 56	30.5	> 61.9	> 54.2	30.9	38.3	> 65.8	> 89.4	> 66.6	38.7	41.9	36.4
COc1cccc(CCNc2c(C#N)c3n(c4ccccc4[n+]3C)c3ncccc23)c1	32.7	42.1	43.8	31.4	44.1	11.3	6.59	50.1	48	38.2	5.13	11.1	3.16	14.7	57	43.3		46.3	10.3
Cc1nc2ccc(NC3OCC(O)C(O)C3O)cc2c(=O)n1-c1ccccc1 (stereo not given)	> 100		> 100	> 100	> 100	> 100	> 100	> 100	> 100	> 100	> 100	> 100	> 100	> 100	> 100	> 100	> 100	> 100	> 100
CCCCCCCCCCCCOC1C(COCCN2CCCCC2)OC2OC(C)(C)OC21 (stereo not given)	4.72	15.9	3.25	3.8	3.25	21.6		3.55	7.25	3.4	3.23	2.9	3.48	4.01	29.3	3.14	3.23	3.18	2.97

Source: PubChem BioAssay (NCI)
